This assay has as its system C57BL/6 mice. Put plainly: animal or person. In kind it is in vivo. As to conditions: Mus musculus, sc, 0.5 h, s.c. administration, 30 min, 55° C. water, read-out: ED50 (mg/kg) at 30 min on C57BL/6 mice in Warm-water Tail-flick Test. (In general: Thermal pain tests record how soon the animal reacts.)

As for `CCOCC1(CCc2ccccc2)CCN(Cc2ccc(B3OC(C)(C)C(C)(C)O3)cc2)CC1` [Compound 152, 4-(ethoxymethyl)-4-phenethyl-1-(4-(4,4,5,5-tetramethyl-1,3,2-dioxaborolan-2-yl)benzyl)piperidine], the ED50 is greater than 10 mg/kg.

As for `CCOCC1(CCc2ccccc2)CCN(Cc2ccc(-c3cn[nH]n3)cc2)CC1` [Compound 153, 1-(4-(2H-1,2,3-triazol-4-yl)benzyl)-4-(ethoxymethyl)-4-phenethylpiperidine], the ED50 is greater than 10 mg/kg.

On to `CCOCC1(CCc2ccccc2)CCN(Cc2ccc(-c3nnn[nH]3)cc2)CC1.Cl` [Compound 154, 1-(4-(1H-tetrazol-5-yl)benzyl)-4-(ethoxymethyl)-4-phenethylpiperidine HCl], for which the ED50 was greater than 10 mg/kg.

Take `CCOCC1(CCc2ccccc2)CCN(Cc2ccc(-c3n[nH]c(=O)[nH]3)cc2)CC1` [Compound 155, 3-(4-((4-(ethoxymethyl)-4-phenethylpiperidin-1-yl)methyl)phenyl)-1H-1,2,4-triazol-5(4H)-one]: the ED50 was greater than 10 mg/kg.

On to `CCOCC1(CCc2ccccc2)CCN(Cc2ccc(C(C)O)cc2)CC1.Cl` (stereo not shown) [Compound 156, 1-(4-((4-(ethoxymethyl)-4-phenethylpiperidin-1-yl)methyl)phenyl)ethanol HCl], for which the ED50 was greater than 10 mg/kg.

As to `CCOCC1(CCc2ccccc2)CCN(Cc2ccc(-n3ccnn3)cc2)CC1` [Compound 157], the ED50 is greater than 10 mg/kg.

In the case of `CCOCC1(CCc2ccccc2)CCN(Cc2ccc(-n3nccn3)cc2)CC1` [Compound 158], the ED50 was greater than 10 mg/kg.

`CCOC(C)C1(CCc2ccccc2)CCN(Cc2ccc(NC(C)=O)cc2)CC1.Cl` (stereo not shown) [Compound 159, N-(4-((4-(1-ethoxyethyl)-4-phenethylpiperidin-1-yl)methyl)phenyl)acetamide HCl]: the ED50 is greater than 10 mg/kg.

For the compound `CC(=O)Nc1ccc(CN2CCC(CCc3ccccc3)(C3CCC(C)O3)CC2)cc1` (stereo not shown) [Compound 160, N-(4-((4-(5-methyltetrahydro-furan-2-yl)-4-phenethylpiperidin-1-yl)methyl)phenyl)acetamide], the ED50 was less than 10 mg/kg.

Take `CCOCC1(CCc2ccccc2)CCN(Cc2ccc(CC(N)=O)cc2)CC1` [Compound 161, 2-(4-((4-(ethoxymethyl)-4-phenethylpiperidin-1-yl)methyl)phenyl)acetamide]: the ED50 is greater than 10 mg/kg.

Regarding `CCOCC1(CCc2ccccc2)CCN(Cc2ccc(CC(=O)NC)cc2)CC1` [Compound 162, 2-(4-((4-(ethoxymethyl)-4-phenethylpiperidin-1-yl)methyl)phenyl)-N-methylacetamide], the ED50 is greater than 10 mg/kg.

Regarding `CCOCC1(CCc2ccccc2)CCN(Cc2ccc(CC(C)O)cc2)CC1` (stereo not shown) [Compound 163, 1-(4-((4-(ethoxymethyl)-4-phenethylpiperidin-1-yl)methyl)phenyl)propan-2-ol], the ED50 is greater than 10 mg/kg.

Take `CC(=O)Nc1ccc(CN2CCC(CCc3ccccc3)(C3(C)CC=CCO3)CC2)cc1.Cl` (stereo not shown) [Compound 164, N-(4-((4-(2-methyl-3,6-dihydro-2H-pyran-2-yl)-4-phenethylpiperidin-1-yl)methyl)phenyl)acetamide HCl]: the ED50 was greater than 10 mg/kg.

`CC(=O)Nc1ccc(CN2CCC(CCc3ccccc3)(C3(C)CCCCO3)CC2)cc1` (stereo not shown) [Compound 165, N-(4-((4-(2-methyltetrahydro-2H-pyran-2-yl)-4-phenethylpiperidin-1-yl)methyl)phenyl)acetamide]: the ED50 was less than 10 mg/kg.

With `CCOCC1(/C=C/c2ccccn2)CCN(Cc2ccc(NC(C)=O)cc2)CC1` [Compound 166, (E)-N-(4-((4-(ethoxymethyl)-4-(2-(pyridin-2-yl)vinyl)piperidin-1-yl)methyl)phenyl)acetamide], the ED50 was greater than 10 mg/kg.

For `CCOCC1(/C=C/c2ccsc2)CCN(Cc2ccc(NC(C)=O)cc2)CC1` [Compound 167, (E)-N-(4-((4-(ethoxymethyl)-4-(2-(thiophen-3-yl)vinyl)piperidin-1-yl)methyl)phenyl)acetamide], the ED50 is greater than 10 mg/kg.

Take `CCOCC1(/C=C/c2ccc3ccccc3c2)CCN(Cc2ccc(NC(C)=O)cc2)CC1` [Compound 168, (E)-N-(4-((4-(ethoxymethyl)-4-(2-(naphthalen-2-yl)vinyl)piperidin-1-yl)methyl)phenyl)acetamide]: the ED50 is greater than 10 mg/kg.

Regarding `CCOCC1(CCc2ccccc2)CCN(Cc2ccc(CNC(C)=O)cc2)CC1.Cl` [Compound 169, N-(4-((4-(ethoxymethyl)-4-phenethylpiperidin-1-yl)methyl)benzyl)acetamide HCl], the ED50 is greater than 10 mg/kg.

`CCOCC1(CCc2ccccc2OC)CCN(Cc2ccc(NC(C)=O)cc2)CC1` [Compound 170, N-(4-((4-(ethoxymethyl)-4-(2-methoxy-phenethyl)piperidin-1-yl)methyl)phenyl)acetamide]: the ED50 is greater than 10 mg/kg.

As for `CC(=O)Nc1ccc(CN2CCC(CCc3cccs3)(C3CCO3)CC2)cc1` (stereo not shown) [Compound 171, N-(4-((4-(oxetan-2-yl)-4-(2-(thiophen-2-yl)ethyl)piperidin-1-yl)methyl)phenyl)acetamide], the ED50 is less than 10 mg/kg.

With `CC(=O)Nc1ccc(CN2CCC(CCc3cccs3)(C3CCCO3)CC2)cc1` (stereo not shown) [Compound 172, N-(4-((4-(tetrahydrofuran-2-yl)-4-(2-(thiophen-2-yl)ethyl)piperidin-1-yl)methyl)phenyl)acetamide], the ED50 is less than 10 mg/kg.

Consider `CCOCC1(CCc2ccccc2)CCN(Cc2ccc(NC=O)s2)CC1` [Compound 173, N-(5-((4-(ethoxymethyl)-4-phenethylpiperidin-1-yl)methyl)thiophen-2-yl)formamide], for which the ED50 was greater than 10 mg/kg.

`CCOCC1(CCc2ccccc2)CCN(c2ccc(CNC(C)=O)cc2)CC1` [Compound 174, N-(4-(4-(ethoxymethyl)-4-phenethylpiperidin-1-yl)benzyl)acetamide]: the ED50 is greater than 10 mg/kg.

In the case of `CC(=O)Nc1ccc(CN2CCC(CCc3ccccc3)(C3C=CC(C)O3)CC2)cc1` (stereo not shown) [Compound 175, N-(4-((4-(5-methyl-2,5-dihydrofuran-2-yl)-4-phenethylpiperidin-1-yl)methyl)phenyl)acetamide], the ED50 is less than 10 mg/kg.

Turning to `CCOCC1(CCc2ccccc2)CCN(Cc2cccc(NC(C)=O)c2)CC1` [Compound 176, N-(3-((4-(ethoxymethyl)-4-phenethylpiperidin-1-yl)methyl)phenyl)acetamide], the ED50 is greater than 10 mg/kg.

With `CCOCC1(CCc2cccs2)CCN(Cc2ccc(NC(C)=O)cc2)C1` (stereo not shown) [Compound 177, N-(4-((3-(ethoxymethyl)-3-(2-(thiophen-2-yl)ethyl)pyrrolidin-1-yl)methyl)phenyl)acetamide], the ED50 was less than 10 mg/kg.

`CCOCC1(CCc2ccsc2)CCN(Cc2ccc(NC(C)=O)cc2)C1` (stereo not shown) [Compound 178, N-(4-((3-(ethoxymethyl)-3-(2-(thiophen-3-yl)ethyl)pyrrolidin-1-yl)methyl)phenyl)acetamide]: the ED50 was less than 10 mg/kg.

With `CC(=O)Nc1ccc(CN2CCC(CCc3ccccc3)(C3C=CCO3)C2)cc1` (stereo not shown) [Compound 179, N-(4-((3-(2,5-dihydrofuran-2-yl)-3-phenethylpyrrolidin-1-yl)methyl)phenyl)acetamide], the ED50 is less than 10 mg/kg.

With `CC(=O)Nc1ccc(CN2CCC(CCc3ccccc3)(C3CCCO3)C2)cc1` (stereo not shown) [Compound 180, N-(4-((3-phenethyl-3-(tetrahydrofuran-2-yl)pyrrolidin-1-yl)methyl)phenyl)acetamide], the ED50 was greater than 10 mg/kg.

For `CCOCC1(CCc2ccccc2)CCN(Cc2ccc(CC(=O)OC)cc2)CC1` [Compound 181, methyl 2-(4-((4-(ethoxymethyl)-4-phenethylpiperidin-1-yl)methyl)phenyl)acetate], the ED50 was greater than 10 mg/kg.

For the compound `CC(=O)Nc1ccc(CN2CCC(CCc3cccs3)(C3C=CCO3)CC2)cc1` (stereo not shown) [Compound 182, N-(4-((4-(2,5-dihydrofuran-2-yl)-4-(2-(thiophen-2-yl)ethyl)piperidin-1-yl)methyl)phenyl)acetamide], the ED50 is greater than 10 mg/kg.

Regarding `CC(=O)Nc1ccc(CN2CCC(CCc3cccs3)(c3ccccn3)CC2)cc1` [Compound 183, N-(4-((4-(pyridin-2-yl)-4-(2-(thiophen-2-yl)ethyl)piperidin-1-yl)methyl)phenyl)acetamide], the ED50 is greater than 10 mg/kg.

As to `CC(=O)Nc1ccc(CN2CCC(CCc3ccsc3)(c3ccccn3)CC2)cc1` [Compound 184, N-(4-((4-(pyridin-2-yl)-4-(2-(thiophen-3-yl)ethyl)piperidin-1-yl)methyl)phenyl)acetamide], the ED50 was greater than 10 mg/kg.

Turning to `CC(=O)Nc1ccc(CN2CCC(CCc3ccsc3)(C3CCO3)CC2)cc1` (stereo not shown) [Compound 185, N-(4-((4-(oxetan-2-yl)-4-(2-(thiophen-3-yl)ethyl)piperidin-1-yl)methyl)phenyl)acetamide], the ED50 was less than 10 mg/kg.

`CC(=O)Nc1ccc(CN2CCC(CCc3ccsc3)(C3CCCO3)CC2)cc1` (stereo not shown) [Compound 186, N-(4-((4-(tetrahydrofuran-2-yl)-4-(2-(thiophen-3-yl)ethyl)piperidin-1-yl)methyl)phenyl)acetamide]: the ED50 was greater than 10 mg/kg.

In the case of `CCOCC1(CCc2ccccc2)CCN(Cc2ccc(-c3nnc(N)o3)cc2)CC1` [Compound 187, 5-(4-((4-(ethoxymethyl)-4-phenethylpiperidin-1-yl)methyl)phenyl)-1,3,4-oxadiazol-2-amine], the ED50 was greater than 10 mg/kg.

As for `CCOCC1(CCc2ccccc2)CCN(Cc2ccc(-c3nnc(OCC)[nH]3)cc2)CC1` [Compound 188, 1-(4-(5-ethoxy-4H-1,2,4-triazol-3-yl)benzyl)-4-(ethoxymethyl)-4-phenethylpiperidine], the ED50 is greater than 10 mg/kg.

As for `CC(=O)Nc1ccc(CN2CCC(CCc3ccccc3)(c3ccco3)C2)cc1` (stereo not shown) [Compound 189, N-(4-((3-(furan-2-yl)-3-phenethylpyrrolidin-1-yl)methyl)phenyl)acetamide], the ED50 was greater than 10 mg/kg.

Regarding `CC(=O)Nc1ccc(CN2CCC(CCc3ccsc3)(c3ccccn3)C2)cc1` (stereo not shown) [Compound 190, N-(4-((3-(pyridin-2-yl)-3-(2-(thiophen-3-yl)ethyl)pyrrolidin-1-yl)methyl)phenyl)acetamide], the ED50 is greater than 10 mg/kg.

`CC(=O)Nc1ccc(CN2CCC(CCc3ccsc3)(C3CCO3)C2)cc1` (stereo not shown) [Compound 191]: the ED50 is less than 10 mg/kg.

Source of the values: US11584765B2 (priority 2017, dated 2023).
